According to ChEMBL document CHEMBL6153174, “Design and Synthesis of Novel Deazapurine DNMT 1 Inhibitors with In Vivo Efficacy in DLBCL” (J Med Chem, 2025):
The source made the active and inactive calls. No cut-off for these calls is given here.

Experiments:
[1] = Antitumor activity against human TMD8 cells harbouring […] xenografted in mouse model assessed as body weight change at 10 mg/kg, iv administered three times a week relative to control; assay type: functional
THP-1 = test: Antiproliferative activity against human THP-1 cells assessed as inhibition of cell viability measured after 72 hrs by MTT assay; assay type: functional, cell-based; conditions: THP-1, 72 h
TMD8 [2] = test: Induction of apoptosis in human TMD8 cells assessed as early apoptotic cells at 10 uM measured after 48 hrs by annexin-V/FITC and PI staining based flow cytometry analysis (reference value: 9.15%); assay type: functional
[3] = Terminal elimination half life in Sprague-Dawley rat at 10 mg/kg, po measured upto 24 hrs by LC/MS/MS analysis; assay type: ADME, organism-based; conditions: in vivo, read-out: beta t1/2 (converted)
[4] = Antitumor activity against human TMD8 cells harbouring […] xenografted in mouse model assessed as tumor inhibition rate at 10 mg/kg, iv administered three times a week relative to control; assay type: functional; parameters: scale not given: the % may be the effect or the level left
[5] = Subacute toxicity in Balb/C mouse assessed as change in body weight at 10 to 30 mg/kg, iv administered three times in a week for 2 weeks; assay type: organism-based; conditions: in vivo, 336 h, dose 10-30 mg/kg
[6] = Volume of distribution at steady state in Sprague-Dawley rat at 10 mg/kg, iv measured upto 24 hrs by LC/MS/MS analysis; assay type: ADME, organism-based; conditions: in vivo, read-out: Vdss
DOHH-2 [7] = test: Induction of apoptosis in human DOHH-2 cells assessed as late apoptotic cells at 1 uM measured after 48 hrs by annexin-V/FITC and PI staining based flow cytometry analysis (reference value: 3.66%); assay type: functional
DOHH-2 [8] = test: Induction of apoptosis in human DOHH-2 cells assessed as early apoptotic cells at 1 uM measured after 48 hrs by annexin-V/FITC and PI staining based flow cytometry analysis (reference value: 5.69%); assay type: functional
Jurkat = test: Antiproliferative activity against human Jurkat cells assessed as inhibition of cell viability measured after 72 hrs by MTT assay; assay type: functional, cell-based
TMD8 [9] = test: Induction of cell cycle arrest in human TMD8 cells assessed as accumulation of cells at G0-G1 phase at 1.0 uM incubated for 24 hrs by PI staining based flow cytometry analysis (reference value: 40.7%); assay type: functional
[10] = Antitumor activity against human TMD8 cells harbouring TP53 mutant xenografted in mouse model assessed as tumor inhibition rate at 10 mg/kg, iv administered three times a week in presence of chidamide relative to control; assay type: functional; parameters: scale not given: the % may be the effect or the level left
TMD8 [11] = test: Induction of cell cycle arrest in human TMD8 cells assessed as accumulation of cells at G2/M phase at 1.0 uM incubated for 24 hrs by PI staining based flow cytometry analysis (reference value: 20.4%); assay type: functional
TMD8 [12] = test: Induction of apoptosis in human TMD8 cells assessed as early apoptotic cells at 2.5 uM measured after 48 hrs by annexin-V/FITC and PI staining based flow cytometry analysis (reference value: 9.15%); assay type: functional
DOHH-2 [13] = test: Induction of cell cycle arrest in human DOHH-2 cells assessed as accumulation of cells at G0-G1 phase at 0.5 uM incubated for 24 hrs by PI staining based flow cytometry analysis (reference value: 27.1%); assay type: functional
[14] = Toxicity in mouse assessed as effect on weight gain at 10 mg/kg, iv administered three times a week; assay type: organism-based; conditions: in vivo
[15] = molecular target: DNA (cytosine-5)-methyltransferase 1 (Homo sapiens, UniProt P26358); test: Inhibition of DNMT1 in human DOHH-2 cells assessed as inhibition of 5-methylcytosine level at 10 to 1000 nM incubated for 48 hrs by Western blot analysis; assay type: cell-based; conditions: dose 10-1000 nM
TMD8 [16] = test: Induction of apoptosis in human TMD8 cells assessed as early apoptotic cells measured after 48 hrs by annexin-V/FITC and PI staining based flow cytometry analysis; assay type: functional, cell-based; conditions: dose 1-10 µM
[17] = Antitumor activity against human TMD8 cells harbouring TP53 mutant xenografted in mouse model assessed as body weight change at 10 mg/kg, iv administered three times a week relative to control; assay type: functional
[18] = AUC (0 to t) in Sprague-Dawley rat at 10 mg/kg, iv measured upto 24 hrs by LC/MS/MS analysis; assay type: ADME, organism-based; conditions: Sprague-Dawley, in vivo
A549 = test: Antiproliferative activity against human A549 cells assessed as inhibition of cell viability measured after 72 hrs by MTT assay; assay type: functional, cell-based; conditions: A549, 72 h
TMD8 [19] = test: Induction of apoptosis in human TMD8 cells assessed as late apoptotic cells at 2.51 uM measured after 48 hrs by annexin-V/FITC and PI staining based flow cytometry analysis (reference value: 5.13%); assay type: functional
[20] = Subacute toxicity in Balb/C mouse assessed as effect on peripheral blood at 10 mg/kg, iv administered three times in a week for 2 weeks; assay type: organism-based; conditions: in vivo, 336 h
[21] = Subacute toxicity in Balb/C mouse assessed as effect on spleen at 30 mg/kg, iv administered three times in a week for 2 weeks; assay type: organism-based; conditions: in vivo, 336 h
TMD8 [22] = test: Induction of apoptosis in human TMD8 cells assessed as late apoptotic cells at 10 uM measured after 48 hrs by annexin-V/FITC and PI staining based flow cytometry analysis (reference value: 5.13%); assay type: functional
[23] = Upregulation of FAS mRNA level in human DOHH-2 cells assessed as fold change at 300 nM measured after 6 days by PCR analysis; assay type: functional; conditions: time 6 day

DNA (cytosine-5)-methyltransferase 1, sequence (P26358 whole entry): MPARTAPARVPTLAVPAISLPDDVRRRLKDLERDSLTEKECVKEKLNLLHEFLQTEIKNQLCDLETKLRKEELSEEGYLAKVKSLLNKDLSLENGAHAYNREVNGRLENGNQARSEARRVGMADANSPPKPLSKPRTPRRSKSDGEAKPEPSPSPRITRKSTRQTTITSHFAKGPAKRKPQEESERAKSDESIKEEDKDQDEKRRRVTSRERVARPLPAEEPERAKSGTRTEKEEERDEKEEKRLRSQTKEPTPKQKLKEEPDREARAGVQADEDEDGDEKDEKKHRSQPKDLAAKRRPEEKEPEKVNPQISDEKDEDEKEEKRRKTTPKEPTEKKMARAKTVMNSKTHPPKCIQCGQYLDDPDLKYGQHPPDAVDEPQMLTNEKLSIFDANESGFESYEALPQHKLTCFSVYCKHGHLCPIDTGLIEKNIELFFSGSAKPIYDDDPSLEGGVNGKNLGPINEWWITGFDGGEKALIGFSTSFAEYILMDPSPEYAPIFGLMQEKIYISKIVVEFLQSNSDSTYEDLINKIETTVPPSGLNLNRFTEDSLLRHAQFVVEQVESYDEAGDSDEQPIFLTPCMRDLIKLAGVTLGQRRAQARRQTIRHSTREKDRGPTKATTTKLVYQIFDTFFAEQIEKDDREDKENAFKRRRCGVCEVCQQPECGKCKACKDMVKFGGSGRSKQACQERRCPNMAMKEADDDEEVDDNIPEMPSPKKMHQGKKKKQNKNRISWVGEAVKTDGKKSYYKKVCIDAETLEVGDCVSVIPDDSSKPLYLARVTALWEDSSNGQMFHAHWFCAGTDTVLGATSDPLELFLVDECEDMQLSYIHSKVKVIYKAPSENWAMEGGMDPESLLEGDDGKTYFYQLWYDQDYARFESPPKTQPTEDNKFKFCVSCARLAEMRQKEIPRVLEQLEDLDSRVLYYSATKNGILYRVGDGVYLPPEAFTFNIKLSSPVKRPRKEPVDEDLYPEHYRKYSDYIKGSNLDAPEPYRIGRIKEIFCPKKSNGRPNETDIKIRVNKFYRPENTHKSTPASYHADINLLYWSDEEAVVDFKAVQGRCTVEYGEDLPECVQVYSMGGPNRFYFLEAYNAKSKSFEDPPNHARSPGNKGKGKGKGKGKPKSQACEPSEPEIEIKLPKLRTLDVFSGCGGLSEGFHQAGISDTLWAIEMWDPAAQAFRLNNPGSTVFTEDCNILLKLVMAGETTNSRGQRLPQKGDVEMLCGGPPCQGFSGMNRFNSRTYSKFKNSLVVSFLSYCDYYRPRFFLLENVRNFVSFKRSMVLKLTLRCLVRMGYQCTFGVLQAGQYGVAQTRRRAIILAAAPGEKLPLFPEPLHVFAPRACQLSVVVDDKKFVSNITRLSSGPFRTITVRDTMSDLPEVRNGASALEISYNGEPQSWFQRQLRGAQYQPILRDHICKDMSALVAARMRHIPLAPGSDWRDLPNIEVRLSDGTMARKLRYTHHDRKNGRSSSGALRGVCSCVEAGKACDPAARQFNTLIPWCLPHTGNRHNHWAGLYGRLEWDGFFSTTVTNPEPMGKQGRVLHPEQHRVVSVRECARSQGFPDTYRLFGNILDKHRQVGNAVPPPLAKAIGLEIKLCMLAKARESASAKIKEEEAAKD

In the case of `CN1CCC(Nc2nc(-c3ccnc(F)c3)nc3c2ccn3CCCN2CCCC2)CC1`, the Activity [1] is reported as 6.8%, the IC50 (THP-1) is reported as 2370 nM and the Activity (TMD8 [2]) is reported as 47.5%. The half-life [3] was 21.9 h, the Activity [4] was 65.7% and the Activity [5] was “Non-toxic”. It also gave a Vd [6] of 102 L/kg, an Activity (DOHH-2 [7]) of 13.6% and an Activity (DOHH-2 [8]) of 24%. For the same compound, the IC50 (Jurkat) was 570 nM, the Activity (TMD8 [9]) was 32.5% and the Activity [10] was 83.2%. It also gave an Activity (TMD8 [11]) of 38.2%, an Activity (TMD8 [12]) of 23% and an Activity (DOHH-2 [13]) of 39.7%. For the same compound, the Activity [14] was “Non-toxic”, the inhibition [15] was “Active” and the Activity (TMD8 [16]) was “Dose-dependent-effect”. It also gave an Activity [17] of -0.9%, an AUC(0-t) at 24 h [18] of 1010 ng·h/mL and an IC50 (A549) of 720 nM. For the same compound, the Activity (TMD8 [19]) was 10.5%, the Activity [20] was “Non-toxic” and the Activity [21] was “Non-toxic”. The Activity (TMD8 [22]) was 12.9% and the “fold change (FC)” value [23] was 3.05.
